Laboratory results reported in PubChem BioAssay AID292 (DTP/NCI, 2004).
“And” between values parts separate entries of the source, which are not always exact repeats. Equal entries are not always repeated. Toxic doses and inconclusive results are not listed.

Test system: B6C3F1 mice, ip Sarcoma M5076, median survival T/C
Test: NCI In Vivo Anticancer Drug Screen. Data for tumor model Sarcoma M5076 (intraperitoneal) in B6C3F1 mice
Conditions: endpoint: median survival time, higher = longer survival
Procedure, shortened: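 Tumour cells were transplanted into mice, compound or vehicle was given, survival of both groups was followed, and the treated figure was expressed over the control figure.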

[1] = dose: 25.0 mg/kg/injection, schedule: Q04DX004 (ip), vehicle: saline
[2] = dose: 50.0 mg/kg/injection, schedule: Q04DX004 (ip), vehicle: saline
[3] = dose: 100.0 mg/kg/injection, schedule: Q04DX004 (ip), vehicle: saline
[4] = dose: 50.0 mg/kg/injection, schedule: Q04DX004 (ip), vehicle: Klucel (hydroxypropylcellulose) (HPC)
[5] = dose: 100.0 mg/kg/injection, schedule: Q04DX004 (ip), vehicle: Klucel (hydroxypropylcellulose) (HPC)
[6] = dose: 200.0 mg/kg/injection, schedule: Q04DX004 (ip), vehicle: Klucel (hydroxypropylcellulose) (HPC)

Compound: CC(C)(C)CCC(Br)CBr (centres undefined)
- T/C (dose: 3.12 mg/kg/injection, schedule: Q04DX004 (ip), vehicle: saline): 98 % of control
- T/C (dose: 3.12 mg/kg/injection, schedule: Q04DX004 (ip), vehicle: suspension in saline): 95 % of control
- T/C (dose: 6.25 mg/kg/injection, schedule: Q04DX004 (ip), vehicle: saline): 102 % of control
- T/C (dose: 6.25 mg/kg/injection, schedule: Q04DX004 (ip), vehicle: suspension in saline): 97 % of control
- T/C (dose: 12.5 mg/kg/injection, schedule: Q04DX004 (ip), vehicle: saline): 99 % of control
- T/C (dose: 12.5 mg/kg/injection, schedule: Q04DX004 (ip), vehicle: suspension in saline): 99 % of control
- T/C [1]: 100 % of control
- T/C [2]: 100 % of control
- T/C (dose: 50.0 mg/kg/injection, schedule: Q04DX004 (ip), vehicle: suspension in saline): 100 % of control and 106 % of control
- T/C (dose: 100.0 mg/kg/injection, schedule: Q04DX004 (ip), vehicle: suspension in saline): 111 % of control
- T/C (dose: 200.0 mg/kg/injection, schedule: Q04DX004 (ip), vehicle: suspension in saline): 106 % of control
- T/C (dose: 400.0 mg/kg/injection, schedule: Q04DX004 (ip), vehicle: suspension in saline): 93 % of control

Compound: CCN(CC)CCCC(C)Nc1c2ccc(Cl)cc2nc2ccc(OC)cc12 (centres undefined)
- T/C [1]: 111 % of control
- T/C [2]: 115 % of control
- T/C [3]: 112 % of control
- T/C (dose: 200.0 mg/kg/injection, schedule: Q04DX004 (ip), vehicle: saline): 91 % of control

Compound: O=C1N=NC2=C1c1c3ccccc3c(O)n1CC2
- T/C (dose: 25.0 mg/kg/injection, schedule: Q04DX004 (ip), vehicle: water): 97 % of control
- T/C (dose: 50.0 mg/kg/injection, schedule: Q04DX004 (ip), vehicle: water): 95 % of control
- T/C (dose: 100.0 mg/kg/injection, schedule: Q04DX004 (ip), vehicle: water): 93 % of control
- T/C (dose: 200.0 mg/kg/injection, schedule: Q04DX004 (ip), vehicle: water): 100 % of control

Compound: CC(=O)[O][Pb]([O]C(C)=O)([c]1ccccc1)[c]1ccccc1
- T/C [4]: 100 % of control
- T/C [5]: 104 % of control
- T/C [6]: 99 % of control
- T/C (dose: 400.0 mg/kg/injection, schedule: Q04DX004 (ip), vehicle: Klucel (hydroxypropylcellulose) (HPC)): 97 % of control
- T/C (dose: 800.0 mg/kg/injection, schedule: Q04DX004 (ip), vehicle: Klucel (hydroxypropylcellulose) (HPC)): 114 % of control

Compound: O=S(=O)(O)O
- T/C (dose: 30.0 mg/kg/injection, schedule: Q01DX009 (ip), vehicle: water): 103 % of control
- T/C (dose: 44.0 mg/kg/injection, schedule: Q01DX009 (ip), vehicle: water): 96 % of control

Compound: CC(O)CCC(=O)c1ccoc1 (centres undefined)
- T/C (dose: 1.25 mg/kg/injection, schedule: Q03HX012 (ip), vehicle: saline): 105 % of control
- T/C (dose: 2.5 mg/kg/injection, schedule: Q03HX012 (ip), vehicle: saline): 95 % of control
- T/C (dose: 5.0 mg/kg/injection, schedule: Q03HX012 (ip), vehicle: saline): 88 % of control
- T/C (dose: 10.0 mg/kg/injection, schedule: Q03HX012 (ip), vehicle: saline): 100 % of control

Compound: CN(C)N=Nc1ccc(C(=O)O)cc1
- T/C [1]: 122 % of control
- T/C [2]: 153 % of control and 159 % of control and 169 % of control
- T/C [3]: 168 % of control and 178 % of control and 181 % of control

Compound: COc1c(O)cc2c(c1OC)-c1ccc(SC)c(=O)cc1C(NC(C)=O)CC2 (centres undefined)
- T/C (dose: 5.0 mg/kg/injection, schedule: Q04DX004 (ip), vehicle: Klucel (hydroxypropylcellulose) (HPC)): 154 % of control and 196 % of control
- T/C (dose: 10.0 mg/kg/injection, schedule: Q04DX004 (ip), vehicle: Klucel (hydroxypropylcellulose) (HPC)): 235 % of control and 237 % of control

Compound: COC1C(CO)OC(n2cnc3c(=S)nc(N)[nH]c32)C1O (centres undefined)
- T/C [4]: 93 % of control
- T/C [5]: 100 % of control
- T/C [6]: 105 % of control
